These compounds were tested on SARS-CoV-2 (assay: Antiviral activity against SARS-CoV-2 infected in human Huh-7 cells harboring viral replicon/EGFP/Neo genes assessed as inhibition of EGFP expression incubated for 24 hrs). Conditions: Severe acute respiratory syndrome coronavirus 2, Huh-7, 24 h.
Type: functional, organism-based
In the case of `O=C(/C=C/c1c(Cl)c(O)c(O)c(O)c1Cl)c1ccc(F)cc1`, the EC50 is reported as 19.9 µM. With `O=C(CCc1cc(O)c(O)c(O)c1)c1ccc(F)cc1` the EC50 was 32.1 µM. Compound `CC(=O)Oc1c(Cl)c(/C=C/C(=O)c2ccc(F)cc2)c(Cl)c(OC(C)=O)c1OC(C)=O` has an EC50 of 40.3 µM. `O=C(/C=C/c1cc(O)c(O)c(O)c1)c1ccc(F)cc1` was tested, and the EC50 was 11.7 µM.

Reference: ChEMBL document CHEMBL6078649, “Discovery of Chalcone Derivatives as Bifunctional Molecules with Anti-SARS-CoV-2 and Anti-inflammatory Activities” (J Nat Prod, 2024)
